EP2060268A1, “Pharmaceutical compositions for pulmonary or nasal delivery of peptides” (NOVO NORDISK A/S, priority 2007, dated 2009)
Ends that are not written are not given here.

What was measured:
[1] = treated test animals; e.g. provoking marked hyperlactemia followed by hyperglycemia; cited from earlier work
[2] = Enhancement of peptide absorption in the lung by absorption enhancers (animal model); type: in vivo; conditions: tested as absorption enhancer, pulmonary route
[3] = when compared to human amylin; cited from earlier work
[4] = cited from earlier work
[5] = Pharmacokinetics after intra-tracheal dry powder delivery to anaesthetised pigs; type: in vivo; conditions: pig, inhaled or intranasal, pramlintide/insulin aspart powder delivered intra-tracheally, plasma
Method: For pulmonary delivery the PennCentury™ DP-4 dry powder insufflator (Penn-Century Inc) modified for pigs was used in combination with the PennCentury™ adjustable air pump, model AP-1 (Penn-Century Inc). The powder is weighed into the sample chamber of the device and manually emitted from the device by using the AP-1 adjustable pump.
The pigs were fasted for approximately 18 h before the experiment. Anaesthesia was induced by injecting Domitor IV (1 mg/mL, 0.4 mL/pig), followed by slow IV infusion of Propofol (10 mg/ml) until the sufficient depth of anaesthesia was obtained, approximately 10-15 mL/pig in total. Atropin (1 mg/ml, 0.5 mL/pig) was injected i.m. to stabilize cardiac parameters and to decrease bronchial secretions. After anaesthesia (and) the pigs were intubated with an endotracheal tube size 8.0 mm. Via an L-piece and the endotraceal tube the pigs were connected to a respirator, with respiration frequency set to 10/min and tidal volume to 300 mL/breath to mimic deep inhalations in humans. […]
Insulin aspart was analyzed using an in-house LOCI sandwich immunoassay with two different antibodies. […] Pramlintide was analyzed using a commercially available human amylin ELISA kit modified for porcine samples (Linco Research, cat. no. EZHA-52K). […]

Compound	amylin activity in vivo [1]	enhancement of peptide absorption in the lung [2]	other results
des-^1Lys^18Arg^25, 28Pro-h-amylin	show amylin activity in vivo	–	–
C[C@H](CCC(=O)NCC(=O)O)[C@H]1CC[C@H]2[C@@H]3[C@H](O)C[C@@H]4C[C@H](O)CC[C@]4(C)[C@H]3C[C@H](O)[C@]12C [glycocholate]	–	effectively enhance peptide absorption in the lung	–
^18Arg^25, 28Pro-h-amylin	show amylin activity in vivo	–	solubility and stability characteristics [3]: more desirable solubility and stability characteristics
Dimethyl-β-cyclodextrin	–	absorption enhancing effect	–
CC[C@H](C)[C@H](NC(=O)[C@@H]1CCCN1C(=O)CNC(=O)[C@H](Cc1ccccc1)NC(=O)[C@H](CC(N)=O)NC(=O)[C@H](CC(N)=O)NC(=O)[C@H](CO)NC(=O)[C@H](CO)NC(=O)[C@H](Cc1c[nH]cn1)NC(=O)[C@@H](NC(=O)[C@H](CC(C)C)NC(=O)[C@H](Cc1ccccc1)NC(=O)[C@H](CC(N)=O)NC(=O)[C@H](C)NC(=O)[C@H](CC(C)C)NC(=O)[C@H](CCCNC(=N)N)NC(=O)[C@H](CCC(N)=O)NC(=O)[C@@H](NC(=O)[C@H](C)NC(=O)[C@@H]1CSSC[C@H](NC(=O)[C@@H](N)CCCCN)C(=O)N[C@@H](CC(N)=O)C(=O)N[C@@H]([C@@H](C)O)C(=O)N[C@@H](C)C(=O)N[C@@H]([C@@H](C)O)C(=O)N1)[C@@H](C)O)C(C)C)C(=O)N[C@@H](CC(C)C)C(=O)N1CCC[C@H]1C(=O)N1CCC[C@H]1C(=O)N[C@H](C(=O)N[C@@H](CC(N)=O)C(=O)N[C@H](C(=O)NCC(=O)N[C@@H](CO)C(=O)N[C@@H](CC(N)=O)C(=O)N[C@H](C(=O)N[C@@H](Cc1ccc(O)cc1)C(N)=O)[C@@H](C)O)C(C)C)[C@@H](C)O [Symlin, ^25,28,29Pro-h-amylin]	–	–	time to reach Cmax ([4]; after a subcutaneous injection): approximately 20 minutes; plasma t½ ([4]; subcutaneous injection): approximately 20 minutes; Tmax [5]: 40 min; solubility and stability characteristics [3]: more desirable solubility and stability characteristics
^28Pro-h-amylin (KCNTATCATQRLANFLVHSSNNFGAILPSTNVGSNTY; ends and bridges not checked; cysteine pairing not given here; UniProt P10997 34-70, looked up, variant S28P)	show amylin activity in vivo	–	–
CC(=O)OC1CC2(C)C(CC(O)C3C4(C)CCC(O)C(C)C4CCC32C)C1=C(CCCC(C)C)C(=O)NCCS(=O)(=O)O (stereo not drawn) [taurodihydrofusidate]	–	effectively enhance peptide absorption in the lung	–
lysophospatidylcholine	–	effective enhancer	–
^25Pro^26Val^28, 29Pro-h-amylin	–	–	solubility and stability characteristics [3]: more desirable solubility and stability characteristics
C[C@H](CCC(=O)O)[C@H]1CC[C@H]2[C@@H]3[C@@H](O)C[C@@H]4C[C@H](O)CC[C@]4(C)[C@H]3CC[C@]12C [ursodeoxycholate]	–	effectively enhance peptide absorption in the lung	–
des-^1Lys-h-amylin (CNTATCATQRLANFLVHSSNNFGAILSSTNVGSNTY; ends and bridges not checked; cysteine pairing not given here; UniProt P10997 35-70, looked up, fragment)	show amylin activity in vivo	–	–
